According to PMC10539361, “Allosteric modulation of the fish taste receptor type 1 (T1R) family by the extracellular chloride ion” (Scientific Reports, 2023):

Tests used:
mfT1R2a/mfT1R3 T105E = mfT1R2a/mfT1R3 T105E (Oryzias latipes, UniProt Q2MHK2+Q2MHK5, Q2MHK2:T105E); test: cell-based; details: EC50, [Cl-]o=10 mM; unit inferred
Description: (§1) The buffers with lower Cl^− were prepared by progressively replacing NaCl, KCl, CaCl2 and MgCl2 in the buffer with gluconate equivalents[20]. The pH was adjusted to 7.4 with NaOH. Ligands were diluted with the assay buffers at the desired concentrations.
(§2) Measurements of the responses of the cells by cell-based assay based on the intracellular Ca^2+ mobilization were carried out as described previously with some modifications[20],[34],[46],[47]. Cell lines stably expressing T1R2, T1R3 and chimeric G-protein α-subunit, G16gust44[48], were constructed using the Flp-In pcDNA5/FRT complete system (Thermo Fisher Scientific, Waltham, MA, USA) described in our previous studies[34],[46]. […] Fluorescence changes (i.e., excitation at 485 nm and emission at 525 nm with a cutoff at 515 nm) were monitored at 2 s intervals. […] The response of each well was determined as ∆RFU (delta relative fluorescent units), which was calculated as (maximum fluorescent value)—(minimum fluorescent value). […] Dose‒response fitting curves were calculated by Prism 9 (GraphPad Software, San Diego, CA) using nonlinear regression (log(agonist) vs. response—variable slope), based on the integrated data from the several independent experiments.

mfT1R2a K295P/mfT1R3 = mfT1R2a K295P/mfT1R3 (Oryzias latipes, UniProt Q2MHK2+Q2MHK5, Q2MHK5:K295P); test: cell-based; details: EC50, [Cl-]o=10 mM; no unit printed with values, x-axis title L-Gln [M]
mfT1R2a K295P/mfT1R3, sequence (Q2MHK5 entry or part of it K295P, one chain of several): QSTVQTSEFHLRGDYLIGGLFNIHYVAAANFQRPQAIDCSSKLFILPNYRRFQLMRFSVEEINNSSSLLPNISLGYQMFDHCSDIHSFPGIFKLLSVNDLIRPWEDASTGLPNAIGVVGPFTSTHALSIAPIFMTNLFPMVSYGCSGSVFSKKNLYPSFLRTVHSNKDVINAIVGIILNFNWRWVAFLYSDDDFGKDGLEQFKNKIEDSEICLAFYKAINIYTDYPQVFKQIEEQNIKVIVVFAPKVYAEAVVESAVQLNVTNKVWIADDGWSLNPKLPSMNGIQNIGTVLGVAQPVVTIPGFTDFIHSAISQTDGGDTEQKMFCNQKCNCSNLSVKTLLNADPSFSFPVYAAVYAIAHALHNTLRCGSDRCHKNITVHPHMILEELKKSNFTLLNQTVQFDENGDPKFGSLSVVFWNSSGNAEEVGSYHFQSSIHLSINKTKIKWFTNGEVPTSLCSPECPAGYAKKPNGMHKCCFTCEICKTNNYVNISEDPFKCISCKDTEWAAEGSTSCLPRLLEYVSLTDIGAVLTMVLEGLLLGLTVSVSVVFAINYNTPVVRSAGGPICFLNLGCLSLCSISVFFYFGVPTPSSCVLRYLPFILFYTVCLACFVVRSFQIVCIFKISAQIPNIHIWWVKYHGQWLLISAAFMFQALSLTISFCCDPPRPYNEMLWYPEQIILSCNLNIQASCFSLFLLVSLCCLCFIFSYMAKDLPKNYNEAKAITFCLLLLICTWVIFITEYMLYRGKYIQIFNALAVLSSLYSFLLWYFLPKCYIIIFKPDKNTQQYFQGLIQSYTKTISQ
Description: as §1, §2

mfT1R2a/mfT1R3 = biological target: T1, mfT1R2a/mfT1R3 (Oryzias latipes, UniProt Q2MHK2+Q2MHK5); test: Ca2+ mobilization dose-response assay, stable cells expressing mfT1R2a/mfT1R3 with G16gust44
T1 sequence (Q2MHK5 20-819): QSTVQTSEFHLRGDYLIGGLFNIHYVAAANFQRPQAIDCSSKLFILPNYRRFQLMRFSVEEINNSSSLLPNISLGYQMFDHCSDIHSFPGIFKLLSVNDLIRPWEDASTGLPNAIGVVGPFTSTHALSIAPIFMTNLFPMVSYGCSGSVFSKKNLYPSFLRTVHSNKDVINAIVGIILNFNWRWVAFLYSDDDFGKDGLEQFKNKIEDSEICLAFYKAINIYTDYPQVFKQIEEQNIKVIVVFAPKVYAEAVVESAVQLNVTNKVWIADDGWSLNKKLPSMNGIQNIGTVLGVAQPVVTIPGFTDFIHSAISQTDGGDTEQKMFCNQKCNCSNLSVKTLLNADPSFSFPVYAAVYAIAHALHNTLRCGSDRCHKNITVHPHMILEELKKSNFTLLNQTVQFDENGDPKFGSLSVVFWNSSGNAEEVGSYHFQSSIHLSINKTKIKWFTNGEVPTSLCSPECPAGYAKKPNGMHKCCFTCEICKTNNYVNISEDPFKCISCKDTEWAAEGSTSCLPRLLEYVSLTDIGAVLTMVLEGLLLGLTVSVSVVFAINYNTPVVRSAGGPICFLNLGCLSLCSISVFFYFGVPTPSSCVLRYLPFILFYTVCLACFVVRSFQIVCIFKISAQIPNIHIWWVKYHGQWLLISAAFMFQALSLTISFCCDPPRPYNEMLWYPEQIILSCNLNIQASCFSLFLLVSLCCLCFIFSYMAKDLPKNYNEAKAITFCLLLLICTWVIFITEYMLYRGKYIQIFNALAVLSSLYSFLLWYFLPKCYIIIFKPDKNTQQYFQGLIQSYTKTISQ
T1 sequence (Q2MHK2 20-853): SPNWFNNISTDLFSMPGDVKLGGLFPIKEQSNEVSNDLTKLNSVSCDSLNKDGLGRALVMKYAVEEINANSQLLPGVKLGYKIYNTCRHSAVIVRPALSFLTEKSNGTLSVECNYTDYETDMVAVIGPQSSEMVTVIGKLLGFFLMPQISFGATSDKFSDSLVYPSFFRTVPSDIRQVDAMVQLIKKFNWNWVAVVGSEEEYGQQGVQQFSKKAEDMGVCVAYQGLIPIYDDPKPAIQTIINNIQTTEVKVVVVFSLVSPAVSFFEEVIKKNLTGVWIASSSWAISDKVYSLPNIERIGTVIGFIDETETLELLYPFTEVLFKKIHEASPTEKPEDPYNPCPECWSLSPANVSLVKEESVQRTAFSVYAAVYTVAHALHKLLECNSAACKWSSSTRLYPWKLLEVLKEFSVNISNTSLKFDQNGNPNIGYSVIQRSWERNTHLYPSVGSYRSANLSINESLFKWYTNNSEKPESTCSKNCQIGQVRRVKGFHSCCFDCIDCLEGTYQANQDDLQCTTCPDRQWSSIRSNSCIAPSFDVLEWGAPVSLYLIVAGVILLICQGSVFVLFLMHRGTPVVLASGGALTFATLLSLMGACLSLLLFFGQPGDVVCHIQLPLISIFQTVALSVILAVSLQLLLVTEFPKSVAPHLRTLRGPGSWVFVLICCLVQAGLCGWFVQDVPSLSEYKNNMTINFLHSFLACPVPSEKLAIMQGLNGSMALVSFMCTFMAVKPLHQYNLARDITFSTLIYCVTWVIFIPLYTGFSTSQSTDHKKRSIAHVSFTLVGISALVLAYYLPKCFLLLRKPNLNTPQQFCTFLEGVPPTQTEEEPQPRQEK
Description: as §1
(§3) Measurements of the responses of the cells by cell-based assay based on the intracellular Ca^2+ mobilization were carried out as described previously with some modifications[20],[34],[46],[47]. […] The cells were seeded in 96-well plates (clear-bottomed CellBIND surface plate, Corning, Glendale, AZ, USA) coated with ε-poly-L-lysine (Cosmo Bio, Tokyo, Japan) at approximately 70,000 cells per well. After 20 h, the medium was removed and replaced with high Cl^− buffer. After 3 h 30 min incubation at 27 °C, cells were loaded with 5 µM calcium-indicator dye Fluo-8 AM (AAT Bioquest, Sunnyvale, CA, USA) diluted in high Cl^− buffer. After incubation for 30 min at 27 °C, the cells were washed with buffers containing appropriate concentrations of Cl^−. The cellular assay was initiated after 3–5 min of resting and was completed within 5 min. The measurements were made using FlexStation 3 (Molecular Devices, Sunnyvale, CA, USA) at 27 °C. Fluorescence changes (i.e., excitation at 485 nm and emission at 525 nm with a cutoff at 515 nm) were monitored at 2 s intervals. A 100-µL aliquot of assay buffer supplemented with 2 × ligands was added at 20 s, and scanning was continued for an additional 40 s. The response of each well was determined as ∆RFU (delta relative fluorescent units), which was calculated as (maximum fluorescent value)—(minimum fluorescent value). […] Such normalized data from more than three independent experiments are reported as the mean ± standard error of the mean (SEM). Dose‒response fitting curves were calculated by Prism 9 (GraphPad Software, San Diego, CA) using nonlinear regression (log(agonist) vs. response—variable slope), based on the integrated data from the several independent experiments.

mfT1R2a K265A/mfT1R3 = mfT1R2a K265A/mfT1R3 (Oryzias latipes, UniProt Q2MHK2+Q2MHK5, Q2MHK5:K265A); test: cell-based; details: EC50, [Cl-]o=10 mM; no unit printed with values, x-axis title L-Gln [M]
mfT1R2a K265A/mfT1R3, sequence (Q2MHK5 entry or part of it K265A, one chain of several): as the sequence (Q2MHK5 entry or part of it K295P, one chain of several) above, with K246A, P276K counted along it
Description: as §1
(§4) Measurements of the responses of the cells by cell-based assay based on the intracellular Ca^2+ mobilization were carried out as described previously with some modifications[20],[34],[46],[47]. […] The cells were seeded in 96-well plates (clear-bottomed CellBIND surface plate, Corning, Glendale, AZ, USA) coated with ε-poly-L-lysine (Cosmo Bio, Tokyo, Japan) at approximately 70,000 cells per well. After 20 h, the medium was removed and replaced with high Cl^− buffer. […] Fluorescence changes (i.e., excitation at 485 nm and emission at 525 nm with a cutoff at 515 nm) were monitored at 2 s intervals. […] The response of each well was determined as ∆RFU (delta relative fluorescent units), which was calculated as (maximum fluorescent value)—(minimum fluorescent value). […] Dose‒response fitting curves were calculated by Prism 9 (GraphPad Software, San Diego, CA) using nonlinear regression (log(agonist) vs. response—variable slope), based on the integrated data from the several independent experiments.

mfT1R2a K265E/mfT1R3 = mfT1R2a K265E/mfT1R3 (Oryzias latipes, UniProt Q2MHK2+Q2MHK5, Q2MHK5:K265E); test: cell-based; details: EC50, [Cl-]o=10 mM; no unit printed with values, x-axis title L-Gln [M]
mfT1R2a K265E/mfT1R3, sequence (Q2MHK5 entry or part of it K265E, one chain of several): as the sequence (Q2MHK5 entry or part of it K295P, one chain of several) above, with K246E, P276K counted along it
Description: as §1, §2

mfT1R2b/mfT1R3 = test: Ca2+ mobilization dose-response assay, stable cells expressing mfT1R2b/mfT1R3 with G16gust44; details: 10 mM vs 141.4 mM Cl- buffer
Description: as §1, §4

mfT1R2b E260A/mfT1R3 = assay type: cell-based, medaka fish; details: 10 mM vs high Cl- buffer
Description: as §1, §4

mfT1R2b E260K/mfT1R3 = assay type: cell-based, medaka fish; details: 10 mM vs high Cl- buffer
Description: as §1, §4

zfT1R2a/zfT1R3 = biological target: T2, zfT1R2a/zfT1R3 (Danio rerio, UniProt A0A8M1N8F9+Q2MHK9); test: Ca2+ mobilization dose-response assay, stable cells expressing zfT1R2a/zfT1R3 with G16gust44
T2 sequence (A0A8M1N8F9 26-825): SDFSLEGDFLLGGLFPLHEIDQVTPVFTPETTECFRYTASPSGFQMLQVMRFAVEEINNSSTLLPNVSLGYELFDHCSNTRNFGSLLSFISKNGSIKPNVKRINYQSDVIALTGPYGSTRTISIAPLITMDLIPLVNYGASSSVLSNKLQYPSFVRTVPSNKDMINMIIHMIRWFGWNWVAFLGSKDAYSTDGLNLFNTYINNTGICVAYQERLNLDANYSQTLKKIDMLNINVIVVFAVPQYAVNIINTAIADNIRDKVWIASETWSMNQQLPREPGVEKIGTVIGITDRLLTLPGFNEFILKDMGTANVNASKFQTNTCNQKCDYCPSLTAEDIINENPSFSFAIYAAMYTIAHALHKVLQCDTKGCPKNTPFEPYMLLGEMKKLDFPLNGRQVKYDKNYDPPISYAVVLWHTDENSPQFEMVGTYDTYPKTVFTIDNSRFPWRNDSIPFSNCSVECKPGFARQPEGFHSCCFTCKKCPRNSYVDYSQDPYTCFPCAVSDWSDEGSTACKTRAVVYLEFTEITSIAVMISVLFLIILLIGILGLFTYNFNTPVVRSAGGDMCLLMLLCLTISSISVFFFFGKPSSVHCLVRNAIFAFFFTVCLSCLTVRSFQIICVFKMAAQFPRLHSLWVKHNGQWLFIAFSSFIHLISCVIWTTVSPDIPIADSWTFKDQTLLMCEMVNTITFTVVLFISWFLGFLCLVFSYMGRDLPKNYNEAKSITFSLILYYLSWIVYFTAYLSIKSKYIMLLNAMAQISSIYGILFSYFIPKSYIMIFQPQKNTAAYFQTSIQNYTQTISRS
T2 sequence (Q2MHK9 25-850): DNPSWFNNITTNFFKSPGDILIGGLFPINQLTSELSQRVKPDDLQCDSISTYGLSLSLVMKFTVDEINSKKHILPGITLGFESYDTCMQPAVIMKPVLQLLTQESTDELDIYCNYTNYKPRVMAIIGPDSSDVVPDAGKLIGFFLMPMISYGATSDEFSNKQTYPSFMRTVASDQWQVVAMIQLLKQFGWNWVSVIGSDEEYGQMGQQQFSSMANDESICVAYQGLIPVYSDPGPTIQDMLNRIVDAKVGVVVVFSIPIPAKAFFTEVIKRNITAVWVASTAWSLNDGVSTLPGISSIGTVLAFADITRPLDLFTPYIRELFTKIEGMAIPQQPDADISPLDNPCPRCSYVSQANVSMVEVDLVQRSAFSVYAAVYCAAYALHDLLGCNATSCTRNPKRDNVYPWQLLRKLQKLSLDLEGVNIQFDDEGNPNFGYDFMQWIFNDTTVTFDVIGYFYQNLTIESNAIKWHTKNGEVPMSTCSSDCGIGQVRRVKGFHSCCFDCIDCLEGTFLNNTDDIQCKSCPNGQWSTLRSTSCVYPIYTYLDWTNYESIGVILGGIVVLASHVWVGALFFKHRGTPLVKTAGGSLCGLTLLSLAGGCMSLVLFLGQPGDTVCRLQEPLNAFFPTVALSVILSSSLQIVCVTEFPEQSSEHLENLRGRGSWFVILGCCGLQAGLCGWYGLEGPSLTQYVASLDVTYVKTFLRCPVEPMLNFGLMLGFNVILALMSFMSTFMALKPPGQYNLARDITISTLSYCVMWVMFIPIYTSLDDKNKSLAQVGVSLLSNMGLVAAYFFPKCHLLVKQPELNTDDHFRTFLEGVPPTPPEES
Description: as §1, §3

mfT1R2c/mfT1R3 = mfT1R2c/mfT1R3 (Oryzias latipes, UniProt Q2MHK2+Q2MHK3); test: Ca2+ mobilization dose-response assay, stable cells expressing mfT1R2c/mfT1R3 with G16gust44
mfT1R2c/mfT1R3, sequence (Q2MHK3 22-818, one chain of several): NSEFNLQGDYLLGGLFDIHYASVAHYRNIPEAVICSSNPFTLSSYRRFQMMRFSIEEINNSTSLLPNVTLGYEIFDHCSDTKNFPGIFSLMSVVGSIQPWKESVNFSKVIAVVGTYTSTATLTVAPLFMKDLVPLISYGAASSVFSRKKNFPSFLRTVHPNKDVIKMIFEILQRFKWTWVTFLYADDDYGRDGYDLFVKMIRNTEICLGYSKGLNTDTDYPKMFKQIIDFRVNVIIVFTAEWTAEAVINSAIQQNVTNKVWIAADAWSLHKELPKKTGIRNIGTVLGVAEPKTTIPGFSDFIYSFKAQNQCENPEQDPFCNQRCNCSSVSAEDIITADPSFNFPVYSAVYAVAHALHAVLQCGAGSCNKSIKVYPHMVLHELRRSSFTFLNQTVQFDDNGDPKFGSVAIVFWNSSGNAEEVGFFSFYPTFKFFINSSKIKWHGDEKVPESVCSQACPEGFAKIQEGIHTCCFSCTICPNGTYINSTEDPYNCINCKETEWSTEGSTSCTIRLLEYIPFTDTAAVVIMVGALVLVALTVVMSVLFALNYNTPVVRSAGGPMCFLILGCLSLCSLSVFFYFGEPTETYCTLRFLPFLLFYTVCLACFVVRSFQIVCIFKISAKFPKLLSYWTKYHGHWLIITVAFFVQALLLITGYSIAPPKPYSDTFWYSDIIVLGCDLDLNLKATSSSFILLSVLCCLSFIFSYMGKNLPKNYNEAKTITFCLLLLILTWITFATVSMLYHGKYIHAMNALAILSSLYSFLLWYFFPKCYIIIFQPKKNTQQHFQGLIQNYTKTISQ
Description: as §1, §3

zfT1R2b/zfT1R3 = biological target: T3, zfT1R2b/zfT1R3 (Danio rerio, UniProt A0A8M1NDZ5+Q2MHK9); test: Ca2+ mobilization dose-response assay, stable cells expressing zfT1R2b/zfT1R3 with G16gust44; details: 10 mM vs 141.4 mM Cl- buffer
T3 sequence (A0A8M1NDZ5 18-823): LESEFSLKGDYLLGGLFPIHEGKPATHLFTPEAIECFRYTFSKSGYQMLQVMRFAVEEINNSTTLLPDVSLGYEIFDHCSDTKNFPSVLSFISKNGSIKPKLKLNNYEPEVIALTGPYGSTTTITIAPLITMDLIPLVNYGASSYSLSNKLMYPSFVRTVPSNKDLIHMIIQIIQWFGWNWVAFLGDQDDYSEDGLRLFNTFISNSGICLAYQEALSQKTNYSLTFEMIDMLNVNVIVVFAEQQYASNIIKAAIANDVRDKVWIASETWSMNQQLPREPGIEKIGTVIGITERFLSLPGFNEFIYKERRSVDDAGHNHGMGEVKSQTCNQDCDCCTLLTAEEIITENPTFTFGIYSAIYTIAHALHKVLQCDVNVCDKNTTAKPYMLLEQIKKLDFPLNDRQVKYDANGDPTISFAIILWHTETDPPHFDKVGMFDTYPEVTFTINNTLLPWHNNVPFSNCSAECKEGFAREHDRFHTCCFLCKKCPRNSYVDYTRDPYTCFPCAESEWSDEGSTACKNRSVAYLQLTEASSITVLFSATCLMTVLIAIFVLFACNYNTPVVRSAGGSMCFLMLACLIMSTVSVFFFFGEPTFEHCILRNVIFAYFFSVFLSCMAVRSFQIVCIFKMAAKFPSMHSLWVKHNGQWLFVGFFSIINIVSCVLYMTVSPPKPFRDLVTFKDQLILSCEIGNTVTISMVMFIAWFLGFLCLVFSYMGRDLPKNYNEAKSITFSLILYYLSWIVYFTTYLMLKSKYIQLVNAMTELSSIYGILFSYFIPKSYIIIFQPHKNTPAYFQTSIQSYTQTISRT
T3 sequence (Q2MHK9 25-850): T2 sequence (Q2MHK9 25-850)
Description: as §1, §3

mfT1R2c/mfT1R3 T105E = mfT1R2c/mfT1R3 T105E (Oryzias latipes, UniProt Q2MHK2+Q2MHK3, Q2MHK2:T105E); test: cell-based; details: EC50, [Cl-]o=10 mM; unit inferred
mfT1R2c/mfT1R3 T105E, sequence (Q2MHK2 entry or part of it T105E): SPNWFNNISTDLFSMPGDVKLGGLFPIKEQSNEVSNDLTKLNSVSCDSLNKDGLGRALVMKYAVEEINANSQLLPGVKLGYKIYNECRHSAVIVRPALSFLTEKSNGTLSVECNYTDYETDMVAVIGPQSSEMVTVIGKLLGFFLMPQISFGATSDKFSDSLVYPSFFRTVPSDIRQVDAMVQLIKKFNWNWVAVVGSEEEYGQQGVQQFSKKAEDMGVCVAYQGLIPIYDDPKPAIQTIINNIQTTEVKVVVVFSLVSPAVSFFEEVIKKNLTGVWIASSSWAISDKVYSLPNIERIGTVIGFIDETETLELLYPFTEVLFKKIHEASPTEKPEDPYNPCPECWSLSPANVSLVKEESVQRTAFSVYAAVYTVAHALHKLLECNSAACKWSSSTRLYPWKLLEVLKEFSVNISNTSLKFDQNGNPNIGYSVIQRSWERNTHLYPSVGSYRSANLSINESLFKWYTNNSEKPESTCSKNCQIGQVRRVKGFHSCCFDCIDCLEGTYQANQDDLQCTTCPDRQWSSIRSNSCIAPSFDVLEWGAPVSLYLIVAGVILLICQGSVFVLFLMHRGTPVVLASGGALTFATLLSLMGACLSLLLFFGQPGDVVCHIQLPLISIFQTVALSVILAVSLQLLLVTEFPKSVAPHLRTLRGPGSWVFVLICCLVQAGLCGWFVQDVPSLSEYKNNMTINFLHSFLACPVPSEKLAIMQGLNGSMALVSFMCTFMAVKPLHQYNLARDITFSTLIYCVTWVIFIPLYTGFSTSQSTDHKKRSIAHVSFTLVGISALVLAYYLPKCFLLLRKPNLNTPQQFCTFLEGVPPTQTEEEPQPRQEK
mfT1R2c/mfT1R3 T105E, sequence (Q2MHK3 entry or part of it): as the sequence (Q2MHK3 22-818, one chain of several) above
Description: as §1, §4

[1] = EC50, [Cl-]o=10 mM, unit inferred

mfT1R2a/mfT1R3 T105E, sequence (Q2MHK2 entry or part of it T105E, one chain of several): as the sequence (Q2MHK2 entry or part of it T105E) above

Structure (SMILES) | EC50 (mfT1R2a/mfT1R3 T105E) | EC50 (mfT1R2a K295P/mfT1R3) | EC50 in 10 mM Cl- buffer relative to high Cl- buffer (mfT1R2a/mfT1R3; 10 mM vs 141.4 mM Cl- buffer) | EC50 (mfT1R2a/mfT1R3; [1]) | EC50 (mfT1R2a K265A/mfT1R3) | EC50 (mfT1R2a K265E/mfT1R3) | effect of anionic buffer composition on sensitivity (mfT1R2b/mfT1R3) | effect of [Cl-]o on sensitivity (mfT1R2b E260A/mfT1R3) | effect of [Cl-]o on sensitivity (mfT1R2b E260K/mfT1R3) | EC50 in 10 mM Cl- buffer relative to high Cl- buffer (zfT1R2a/zfT1R3; 10 mM vs 141.4 mM Cl- buffer) | EC50 (zfT1R2a/zfT1R3; [1]) | increase in EC50 in 10 mM Cl- buffer compared to high Cl- buffer (mfT1R2c/mfT1R3; 10 mM vs 141.4 mM Cl- buffer) | EC50 (mfT1R2c/mfT1R3; [1]) | change of EC50 value with [Cl-]o (mfT1R2c/mfT1R3; range from 10 to 80 mM [Cl-]o) | EC50 in 10 mM Cl- buffer relative to high Cl- buffer (zfT1R2b/zfT1R3) | EC50 (mfT1R2c/mfT1R3 T105E)
NC(=O)CC[C@H](N)C(=O)O [L-Gln, L-glutamine] | 864 µM | 0.000368 M | approximately 6.5 times higher | 403 µM | 0.000283 M | 0.000208 M | – | – | – | – | – | – | – | – | – | –
O=C(O)[C@@H]1CCCN1 [L-Pro, L-proline] | – | – | – | – | – | – | hardly affected | hardly affected | hardly affected | approximately 5 times higher | 437 µM | approximately threefold increase | 15 µM | almost unchanged | approximately half | 26.3 µM
